Where “and” joins values, the source holds several entries; their conditions need not be identical. Identical values can stand only once. Like-named read-outs stand apart in the source and are kept apart here.
What was measured:
[1] = test system: cultured embryonic mesencephalic cells; assay: Neuronal survival: [3H]dopamine uptake by cultured mesencephalic cells; type: cell-based, rat
Description: The amount of uptake by the cultured brain cells corresponds to axonal growth.

[2] = test system: cultured rat mesencephalic cells exposed to NMDA; assay: NMDA model of cell death: TH immunochemistry; conditions: 100 μM NMDA exposure
Description: Rat mesencephalic cell cultures were exposed to 100 μM NMDA and incubated as described above in connection with FIG. 16.

[3] = test system: TH positive cells in cultured E-14 embryonic mesencephalic cells

## desmethylselegiline [R(−)DMS]
[1]; 0.5 μM
  3H-Dopamine Uptake, % Cont: 200.4%
  3H-Dopamine Uptake, Mean: 24020 ± 800
[1]; 5 μM
  3H-Dopamine Uptake, % Cont: 291.5%
  3H-Dopamine Uptake, Mean: 34936 ± 2119
[1]; 50 μM
  3H-Dopamine Uptake, % Cont: 474.3%
  3H-Dopamine Uptake, Mean: 56826 ± 2656
[2]; 0.5 μM
  TH Immunochemistry, % control, Mean: 97.3%
  TH Immunochemistry, % control, individual cultures: 100.9% and 79.6% and 111.5%
  TH Immunochemistry, cells/cm^2, Mean: 91.67 cells/cm^2
  TH Immunochemistry, cells/cm^2, individual cultures: 95.0 cells/cm^2 and 75.0 cells/cm^2 and 105.0 cells/cm^2
[2]; 5.0 μM
  TH Immunochemistry, % control, Mean: 136.1%
  TH Immunochemistry, % control, individual cultures: 151.3% and 130.1% and 138.1% and 124.8%
  TH Immunochemistry, cells/cm^2, Mean: 128.13 cells/cm^2
  TH Immunochemistry, cells/cm^2, individual cultures: 142.5 cells/cm^2 and 122.5 cells/cm^2 and 130.0 cells/cm^2 and 117.5 cells/cm^2
[2]; 50 μM
  TH Immunochemistry, % control, Mean: 165.9%
  TH Immunochemistry, % control, individual cultures: 252.2% and 180.5% and 108.8% and 122.1%
  TH Immunochemistry, cells/cm^2, Mean: 156.25 cells/cm^2
  TH Immunochemistry, cells/cm^2, individual cultures: 237.5 cells/cm^2 and 170.0 cells/cm^2 and 102.5 cells/cm^2 and 115.0 cells/cm^2
[3]; 0.5 μM
  Survival of TH positive cells, % cont.: 226.62%
  Survival of TH positive cells, Mean cells/cm^2: 246.00 ± 22.76 cells/cm^2
[3]; 5 μM
  Survival of TH positive cells, % cont.: 329.76%
  Survival of TH positive cells, Mean cells/cm^2: 357.95 ± 25.76 cells/cm^2
[3]; 50 μM
  Survival of TH positive cells, % cont.: 360.76%
  Survival of TH positive cells, Mean cells/cm^2: 391.60 ± 34.93 cells/cm^2

— patent US6375979B2 (Somerset Pharmaceuticals, Inc., priority 1995, dated 2002)
